Test results as given in patent publication US5583108A, “Vasonatrin peptide and analogs thereof” (Mayo Foundation for Medical Education and Research, priority 1994, dated 1996).
“Also recorded” adds a separate entry of the source.

Columns and labels:
[1] = system: vessels pre-contracted with endothelin; assay: Relaxation of vessels pre-contracted with endothelin
[2] = system: isolated normal canine blood vessels; assay: Organ chamber isometric force: relaxation of phenylephrine-contracted vessel rings; design: species or system dog; conditions: for relaxation: maximal dose (3×10^-6 M); for maximal response, percent change in tension from a contraction to phenylephrine: peptide 3 × 10^-6 M, mean ± SEM
Procedure: (§1) The results obtained are expressed as the means ±SEM. In organ chamber studies, n equals the number of dogs from which rings were taken. Rings with and without endothelium were studied in parallel, and Student's t-test for unpaired observations was used to determine statistical significance among the responses of rings with and without endothelium and between responses of arteries and veins. In rat studies, the data were analyzed using ANOVA for repeated measures followed by Fisher's least significant difference test when appropriate within the group. Data between groups were analyzed by Student's unpaired t-test. Statistical significance was determined at p<0.05.
Rings cut from femoral, saphenous, renal and pulmonary arteries and veins obtained from random source mongrel dogs (anesthetized with 30 mg/kg pentobarbital sodium intravenously) were suspended for the measurement of isometric force in organ chambers filled with aerated (95% O2 and 5% CO2) modified Krebs-Ringer bicarbonate solution (composition in mM: 118.3 NaCl, 4.7 KCl, 2.5 CaCl2, 1.2 MgSO4, 1.2 KH2 PO4, 25.0 NaHCO3, 0.026 calcium sodium EDTA, and 11.1 dextrose; control solution) at 37° C. In one-half rings, the endothelium was removed by gently rubbing the intimal surface with a cotton swab wetted with control solution. Each ring was stretched to the optimal point on its length-tension curve as determined by the tension developed to norepinephrine (3×10^-7 M) at each level of stretch. The presence of endothelium was determined at the beginning of the experiment by a relaxation to acetylcholine (10^-6 M) during a contraction to norepinephrine at optimal length. The maximal tension of each ring was determined by norepinephrine (10^-4 M). To study responses to ANP, CNP and VNP, the rings were contracted with phenylephrine (10^-6 M). These contractions averaged 30-40% of the maximal contraction to norepinephrine. The peptides were added cumulatively once the contraction had stabilized.
The following commercially available drugs were used: acetylcholine chloride (Sigma Chemical, St. Louis, Mo.), human ANP and human CNP (Peninsula Laboratories, Belmont, Calif.), L-norepinephrine bitartrate (Sigma), phenylephrine bitartrate (Sigma). All drugs were dissolved in distilled water immediately prior to study, and the concentrations are reported as the final molar concentration (M) in the organ chamber.

[3] = system: normal rats; assay: Cardiorenal actions after intravenous bolus in anesthetized normal rats; assay type: in vivo, Wistar rats; conditions: for MAP mean arterial pressure / HR heart rate / RAP right atrial pressure / UKV urine potassium excretion / UNaV urine sodium excretion / UV urine volume / UcGMPV urine cGMP volume / PcGMP plasma cGMP: mean ± SEM; for MAP mean arterial pressure: n = 4
Procedure: as §1
Experiments were conducted in accordance with the Animal Welfare Act. Wistar rats and spontaneously hypertensive rats (SHR) (400 g; Harlan Sprague-Dawley, Indianapolis, Ind.) were anesthetized with Inactin (100 mg/kg; intraperitoneal; BYK Gulden, Konstanz, Germany). The body temperature was maintained between 36° and 38° C. by a heating pad. Tracheostomy was performed; however, the animals were not artificially ventilated. Polyethylene catheters (PE-50; Becton Dickinson Co., Parsippany, N.J.) were placed in the left Jugular vein for infusions of saline and drugs, in the right jugular vein to right atrium to monitor right atrial pressure, and in the carotid artery for the collection of blood samples and to monitor mean arterial pressure. A PE-90 catheter was placed in the bladder for urine collection.
Experiments were conducted in three groups in normal rats: ANP group (n=4), CNP group (n=4), and VNP group (n=4). VNP also was studied in SHR rats (n=4). Intravenous infusions of saline solution (0.9% NaCl) were performed (1 ml/100 gm body weight/hr) through the left jugular vein catheter. After completion of surgery, rats were allowed to stabilize for 30 minutes. In each group, a 15-min baseline period followed. After the baseline period, saline solution (0.9% NaCl) was administered in a bolus fashion (0.1 ml) and was followed by a 15-min period. After the saline period, the peptide (ANP, CNP or VNP) was administered in a bolus fashion (0.1 ml) at 5 μg/kg which was followed by a 15-min period. This was followed by a second bolus (0.1 ml) at 50 μg/kg and a 15-min period. After a 30-min washout, a 15-min recovery period followed. During each experimental period, mean arterial pressure (MAP), heart rate (HR), and right atrial pressure (RAP) were measured. At the midpoint of baseline, second bolus fashion (50 μg/kg) and recovery periods, blood was sampled for plasma cGMP. At the end of each period, urine was measured for volume (UV), and samples were stored for electrolytes and cGMP analysis.
Blood for plasma cGMP analysis was collected into EDTA tubes, immediately placed on ice, and centrifuged at […] at 4° C. Plasma was separated and stored at -20° C. until assay. Urine for cGMP determination was heated to >90° C. before storage. Plasma and urine cGMP were determined by a specific RIA as previously described by A. L. Steiner et al., J. Hypertension, 5 (Suppl. 5) 551-553 (1987).

[4] = system: isolated vessels in congestive heart failure dogs; assay: Preliminary studies: vasorelaxation in isolated vessels of congestive heart failure dogs; design: species or system dog
[5] = normal rats, high dose (50 μg/kg) bolus

CC[C@H](C)[C@@H]1NC(=O)[C@H](CCCNC(=N)N)NC(=O)[C@H](CC(=O)O)NC(=O)[C@H](CC(C)C)NC(=O)[C@H](CCCCN)NC(=O)[C@H](CC(C)C)NC(=O)CNC(=O)[C@H](Cc2ccccc2)NC(=O)[C@@H](NC(=O)CNC(=O)[C@H](CCCCN)NC(=O)[C@H](CO)NC(=O)[C@H](CC(C)C)NC(=O)CN)CSSC[C@@H](C(=O)N[C@@H](CC(N)=O)C(=O)N[C@@H](CO)C(=O)N[C@@H](Cc2ccccc2)C(=O)N[C@@H](CCCNC(=N)N)C(=O)N[C@@H](Cc2ccc(O)cc2)C(=O)O)NC(=O)CNC(=O)[C@H](CC(C)C)NC(=O)CNC(=O)[C@H](CO)NC(=O)[C@H](CCSC)NC(=O)[C@H](CO)NC(=O)CNC1=O [VNP, vasonatrin peptide]
relaxation of pre-contracted vessels (in words) [1]: able to relax | relaxation ([2]; femoral and saphenous arteries): 90-100% | maximal response, percent change in tension from a contraction to phenylephrine ([2]; femoral artery, with endothelium, phenylephrine 10^-6 M): 91 ± 4% | maximal response, percent change in tension from a contraction to phenylephrine ([2]; femoral artery, without endothelium): 89 ± 5% | maximal response, percent change in tension from a contraction to phenylephrine ([2]; femoral vein, with endothelium): 81 ± 6% | maximal response, percent change in tension from a contraction to phenylephrine ([2]; femoral vein, without endothelium): 86 ± 6% | relaxation ([2]; femoral veins): 90% | order of potency ([2]; pulmonary arteries): ANP=VNP>CNP | maximal response, percent change in tension from a contraction to phenylephrine ([2]; pulmonary artery, with endothelium): 57 ± 5% | maximal response, percent change in tension from a contraction to phenylephrine ([2]; pulmonary artery, without endothelium): 63 ± 7% | maximal response, percent change in tension from a contraction to phenylephrine ([2]; pulmonary vein, with endothelium): 71 ± 2% | maximal response, percent change in tension from a contraction to phenylephrine ([2]; pulmonary vein, without endothelium): 84 ± 3% | order of potency ([2]; pulmonary veins without endothelium): VNP>CNP>ANP | maximal response, percent change in tension from a contraction to phenylephrine ([2]; renal artery, with endothelium): 52 ± 4% | maximal response, percent change in tension from a contraction to phenylephrine ([2]; renal artery, without endothelium): 62 ± 12% | maximal response, percent change in tension from a contraction to phenylephrine ([2]; renal vein, with endothelium): 65 ± 6% | maximal response, percent change in tension from a contraction to phenylephrine ([2]; renal vein, without endothelium): 90 ± 4% | maximal response, percent change in tension from a contraction to phenylephrine ([2]; saphenous artery, with endothelium): 73 ± 3% | maximal response, percent change in tension from a contraction to phenylephrine ([2]; saphenous artery, without endothelium): 81 ± 5% | maximal response, percent change in tension from a contraction to phenylephrine ([2]; saphenous vein, with endothelium): 60 ± 11% | maximal response, percent change in tension from a contraction to phenylephrine ([2]; saphenous vein, without endothelium): 89 ± 6% | relaxation ([2]; saphenous veins): 90% | potency for relaxation (order) ([2]; systemic arteries): VNP>ANP≥CNP | relaxation, % of the contraction to phenylephrine ([2]; systemic arteries (femoral, saphenous and renal)): 50-90% | potency for relaxation (order) ([2]; systemic veins): VNP>CNP>ANP | natriuretic action (in words) ([3]; in vivo, rat): potent natriuretic effect | change in MAP and RAP (in words) [3, 5]: significant decrease; also recorded: significantly decreased | change in urine flow, sodium excretion, plasma cGMP and urinary cGMP volume (in words) [3, 5]: significantly increased | increase in urine flow, sodium excretion and urinary cGMP volume compared between peptides [3, 5]: significantly higher with VNP than those of CNP, but were less than those of ANP | MAP mean arterial pressure ([3]; normal rats, iv bolus 5 μg/kg, 15-min period): 93 ± 15 mmHg | HR heart rate ([3]; normal rats, iv bolus 5 μg/kg): 393 ± 20 beats/min | RAP right atrial pressure ([3]; normal rats, iv bolus 5 μg/kg): -3.5 ± 0.9 mmHg | UKV urine potassium excretion ([3]; normal rats, iv bolus 5 μg/kg): 3.3 ± 1.4 µmol/min | UNaV urine sodium excretion ([3]; normal rats, iv bolus 5 μg/kg): 5.3 ± 1.9 µmol/min | UV urine volume ([3]; normal rats, iv bolus 5 μg/kg): 32.2 ± 7.5 µL/min | UcGMPV urine cGMP volume ([3]; normal rats, iv bolus 5 μg/kg): 113 ± 27 pmol/min | HR heart rate ([3]; normal rats, iv bolus 50 μg/kg): 408 ± 25 beats/min | PcGMP plasma cGMP ([3]; normal rats, iv bolus 50 μg/kg): 33.3 ± 8.7 pmol/mL | RAP right atrial pressure ([3]; normal rats, iv bolus 50 μg/kg): -4.3 ± 0.8 mmHg | UKV urine potassium excretion ([3]; normal rats, iv bolus 50 μg/kg): 11.9 ± 4.7 µmol/min | UNaV urine sodium excretion ([3]; normal rats, iv bolus 50 μg/kg): 22.5 ± 2.2 µmol/min | UV urine volume ([3]; normal rats, iv bolus 50 μg/kg): 136 ± 5.5 µL/min | UcGMPV urine cGMP volume ([3]; normal rats, iv bolus 50 μg/kg): 961 ± 82 pmol/min | MAP mean arterial pressure ([3]; normal rats, recovery period after 30-min washout): 93 ± 15 mmHg | HR heart rate ([3]; normal rats, recovery period): 390 ± 20 beats/min | PcGMP plasma cGMP ([3]; normal rats, recovery period): 4.4 ± 1.4 pmol/mL | RAP right atrial pressure ([3]; normal rats, recovery period): -2.9 ± 0.9 mmHg | UKV urine potassium excretion ([3]; normal rats, recovery period): 1.3 ± 0.6 µmol/min | UNaV urine sodium excretion ([3]; normal rats, recovery period): 0.9 ± 0.3 µmol/min | UV urine volume ([3]; normal rats, recovery period): 8.4 ± 2.7 µL/min | UcGMPV urine cGMP volume ([3]; normal rats, recovery period): 88 ± 48 pmol/min | MAP mean arterial pressure ([3]; normal rats, second iv bolus 50 μg/kg, 15-min period): 79 ± 15 mmHg | vasorelaxing actions (in words) [4]: potent vasorelaxing actions
